{"source": "paper PMC9942793", "about": "(Proceedings of the National Academy of Sciences of the …, 2023)", "molecular_target": "T1, SLO3 (Homo sapiens, UniProt A8MYU2)", "T1 sequence (A8MYU2 1-1149)": "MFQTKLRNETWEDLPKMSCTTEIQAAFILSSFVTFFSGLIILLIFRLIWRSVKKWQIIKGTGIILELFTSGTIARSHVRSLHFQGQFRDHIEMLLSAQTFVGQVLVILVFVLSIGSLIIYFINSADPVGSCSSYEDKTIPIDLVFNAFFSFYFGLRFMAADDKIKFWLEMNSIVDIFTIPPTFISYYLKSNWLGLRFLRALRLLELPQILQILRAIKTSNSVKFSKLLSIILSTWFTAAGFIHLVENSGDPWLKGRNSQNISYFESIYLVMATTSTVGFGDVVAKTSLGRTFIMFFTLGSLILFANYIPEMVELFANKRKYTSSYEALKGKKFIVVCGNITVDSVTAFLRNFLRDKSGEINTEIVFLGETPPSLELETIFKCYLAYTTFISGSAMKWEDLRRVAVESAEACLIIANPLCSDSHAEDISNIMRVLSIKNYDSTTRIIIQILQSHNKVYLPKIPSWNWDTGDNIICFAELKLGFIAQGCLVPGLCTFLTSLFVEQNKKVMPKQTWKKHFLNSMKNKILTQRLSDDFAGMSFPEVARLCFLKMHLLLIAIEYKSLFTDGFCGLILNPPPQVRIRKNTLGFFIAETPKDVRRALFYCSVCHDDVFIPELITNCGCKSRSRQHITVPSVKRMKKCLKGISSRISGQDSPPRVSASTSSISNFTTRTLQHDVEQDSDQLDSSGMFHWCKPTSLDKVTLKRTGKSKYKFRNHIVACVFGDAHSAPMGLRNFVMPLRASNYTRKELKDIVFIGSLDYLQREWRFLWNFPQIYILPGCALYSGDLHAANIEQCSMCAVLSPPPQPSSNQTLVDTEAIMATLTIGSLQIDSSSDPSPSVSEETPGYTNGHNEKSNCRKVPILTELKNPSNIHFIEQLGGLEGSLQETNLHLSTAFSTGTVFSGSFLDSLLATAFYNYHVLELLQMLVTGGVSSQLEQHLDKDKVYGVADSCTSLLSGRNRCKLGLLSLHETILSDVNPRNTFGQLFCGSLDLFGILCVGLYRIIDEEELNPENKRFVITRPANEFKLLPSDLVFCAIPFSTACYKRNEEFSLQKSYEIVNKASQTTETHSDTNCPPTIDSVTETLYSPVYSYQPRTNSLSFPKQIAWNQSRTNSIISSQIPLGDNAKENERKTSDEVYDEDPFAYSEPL", "T1 sequence (Q8N7C0 24-313 partner)": "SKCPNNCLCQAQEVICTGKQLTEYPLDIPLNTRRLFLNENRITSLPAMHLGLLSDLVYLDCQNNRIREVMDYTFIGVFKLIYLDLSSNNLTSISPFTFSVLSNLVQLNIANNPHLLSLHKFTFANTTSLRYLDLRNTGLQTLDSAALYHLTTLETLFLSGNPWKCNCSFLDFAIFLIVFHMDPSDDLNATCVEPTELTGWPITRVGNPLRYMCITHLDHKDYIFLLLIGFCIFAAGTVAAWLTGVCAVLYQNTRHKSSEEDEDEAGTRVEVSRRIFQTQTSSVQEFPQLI", "assay": "Tl+ flux assay", "format": "cell-based"}
{"smiles": "FC(F)(F)c1cc(NC(=S)Nc2ccc(Br)cc2-c2nnn[nH]2)cc(C(F)(F)F)c1", "note": "[NS11021]", "values": [{"measurement": "Tl+ flux assay (activation; 100 μM used in the screen)", "result": "found that the SLO1 activator NS11021 also activates SLO3 at high concentrations (Fig. 1B)"}]}
